Measured values as given in patent US5045566A, “Novel imidate insecticides” (ICI Americas Inc., priority 1989, dated 1991).

Experiments:
Assay type in all cases: in vivo
[1] = system: Housefly [Musca domestica]; test: Housefly contact mortality in dishes (HF), 48 hours; details: μg of test compound per 25 female flies
Method in brief: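 LC50 (μg compound per 25 female flies) derives from dosage-mortality curves of 48 h kill. Flies, females 1-2 days old, were held 25 per cage over a dish coated with dried acetone deposit, starting at 100 μg per cage and descending.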

[2] = system: Beet Armyworm (Spodoptera exigua); test: Beet armyworm leaf dip (BAW), 5 days; details: percent in solution; second-instar larvae; five days
Protocol: (§1) The compounds in Tables 1 and 2 above were tested for insecticidal activity using the following testing procedures. LC50 values, based on the results of these tests and calculated according to dosage-mortality curves, are expressed in Table 3.
Beet Armyworm (Spodoptera exigua):
Test compounds were diluted in a 50-50 acetone-water solution. Young leaves of sugar beets (Beta vulgaris) were immersed in the test solutions for 2-3 seconds and placed on a wire screen to dry. The dried leaves were placed in petri dishes containing a moistened filter paper and infested with five second-instar beet armyworm larvae. The dishes were placed in a high humidity chamber. Mortality of the larvae was recorded five days later. Test concentrations ranged from 0.1% downward. The LC-50 values are expressed below in Table 3 under the heading "BAW" in terms of percent of the test compound in solution.

[3] = system: Black Bean Aphid [Aphis fabae (Scop.)]; test: Black bean aphid spray test on nasturtium (BBA), 48 hours; details: percent of test compound in sprayed solution
Method in brief: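 LC50, given as percent test compound in the sprayed liquid, was calculated from dosage-mortality curves using concentrations from 0.05% downward. Sprays in 50:50 acetone-water went to runoff on ~5 cm nasturtiums carrying 25-50 aphids of mixed ages, one day after infestation. Deaths were counted 48 h later under greenhouse conditions.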

[4] = system: Cabbage Looper [Trichoplusia ni (Hubner)]; test: Cabbage looper leaf dip (CL), 3-5 days; details: percent in solution, second-instar larvae
Method in brief: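 LC50 values, given as percent test compound in solution, were calculated from dosage-mortality curves. Squash cotyledons were immersed 2-3 s in acetone-water (50-50) dilutions starting at 0.1%, dried on a screen, then infested with five second-instar larvae. Mortality was read 3-5 days on.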

[5] = system: Aster Leafhopper [Macrosteles fascifrens (Stal)]; test: Aster leafhopper on dipped oat seedlings (LH), 48 hours; details: percent in solution, adults/nymphs
Method in brief: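 LC50 values, given as percent of test compound in the dip solution, were derived from dosage-mortality curves over concentrations from 0.05% downward. Mortality was counted 48 hours after ten leafhopper adults/nymphs were enclosed on treated seedlings. The seedlings were oats, about 10 cm tall, briefly dipped in 50-50 acetone-water.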

[6] = system: Tobacco Budworm [Heliothis virescens (Fabricius)] eggs; test: Tobacco budworm eggs (TBW-E); details: percent in solution; 2-day old eggs
Method in brief: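 2-day eggs on paper towel, acetone dip, 0.1% and below; petri dish with larval diet, 78° F. Mortality read after control hatch and larval feeding. LC50 = % compound in solution, from dose-mortality curve.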

[7] = system: Maize weevil [Sitophilus zeamais (Motschulsky)]; test: Maize weevil on dipped corn seeds (MW), 48 hours; details: percent in solution, adult weevils
Method in brief: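 LC50, given as percent of compound in dipping solution, comes from dosage-mortality curves over concentrations descending from 0.01%. Four corn seeds soaked 2-3 s in 50:50 acetone:water solution were dried and held with 10 adult weevils, about 25° C, mortality read after 48 h.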

[8] = system: Tobacco Budworm [Heliothis virescens (Fabricius)] larvae; test: Tobacco budworm larvae, contact (TBW-C), 5 days; details: percent in solution, second-instar larvae
Protocol: as §1
Tobacco Budworm [Heliothis virescens (Fabricius)]:
(a) Contact: Test compounds were diluted in a 50-50 acetone-water solution. Cotton (Gossypium sp.) cotyledons were immersed in the test solutions for 2-3 seconds and placed on a wire screen to dry. The dried leaves were placed in petri dishes containing a moistened piece of filter paper and infested with 5 second-instar tobacco budworm larvae. The dishes were placed in a high humidity chamber for 5 days, and percent mortality of the larvae recorded. Test concentrations ranged from 0.1% downward. The LC-50 values are expressed below in Table 3 under the heading "TBW-C" in terms of percent of the test compound in the solution.

SMILES | LC50 HF [1] [µg] | LC50 BAW [2] [%] | LC50 BBA [3] [%] | LC50 CL [4] [%] | LC50 LH [5] [%] | LC50 TBW E (eggs) [6] [%] | LC50 MW [7] [%] | LC50 TBW C (contact) [8] [%]
CC(C)C(=Nc1cccc(Cl)c1)OCc1cccc(Oc2ccccc2)c1 [Compound 7] | 8 | 0.006 | 0.0003 | 0.006 | 0.0002 | 0.009 |  | 
CC(C)C(=Nc1ccc(Cl)c(Cl)c1)OCc1cccc(Oc2ccccc2)c1 [Compound 14] | 40 | 0.005 | 0.0003 | 0.004 | 0.001 |  | 0.01 | 
CC(C)C(=Nc1ccc(Cl)cc1)OCc1ccc(F)c(Oc2ccccc2)c1 [Compound 23] | 5 | 0.001 | 0.001 | 0.0005 |  | 0.017 |  | 
Clc1ccc(N=C(OCc2cccc(Oc3ccccc3)c2)C2CC2)cc1 [Compound 32] | 37 | 0.03 | 0.003 | 0.003 | > 0.05 |  | > 0.01 | 
Clc1ccccc1N=C(OCc1cccc(Oc2ccccc2)c1)C(Cl)Cl [Compound 34] | > 100 | 0.015 | > 0.05 | 0.015 |  | > 0.1 |  | 0.01
Fc1ccc(N=C(OCc2cccc(Oc3ccccc3)c2)C2CC2)cc1 [Compound 45] | 30 | 0.1 | 0.03 | 0.03 | > 0.05 |  |  | 
CC(C)C(=Nc1ccc(F)cc1)OCc1cccc(Oc2ccccc2)c1 [Compound 46] | 7 | 0.006 | 0.003 | 0.003 | 0.002 | 0.016 |  | 
CC(C)C(=Nc1ccc(F)cc1)OCc1ccc(F)c(Oc2ccccc2)c1 [Compound 53] | 2 | 0.003 | 0.001 | 0.0005 |  | 0.02 |  | 0.0025
FC(F)(F)c1ccc(N=C(OCc2cccc(Oc3ccccc3)c2)C2CC2)cc1 [Compound 62] | 20 | 0.02 | 0.001 | 0.005 | > 0.05 |  | > 0.01 | 
FC(F)(F)Oc1ccc(N=C(OCc2cccc(Oc3ccccc3)c2)C2CC2)cc1 [Compound 63] | 30 | 0.005 | 0.0003 | 0.005 | 0.0001 |  | > 0.01 | 
FC(F)(F)c1ccc(N=C(OCc2cccc(Oc3ccccc3)c2)C2CC2)c(Cl)c1 [Compound 65] | > 100 | > 0.1 | > 0.05 | < 0.01 | > 0.05 |  |  | 
CC(C)C(=Nc1cccc(C(F)(F)F)c1)OCc1cccc(Oc2ccccc2)c1 [Compound 67] | 15 | 0.006 | 0.0002 | 0.001 | 0.00027 | 0.01 |  | 
Cc1c(Cl)cccc1N=C(OCc1cccc(Oc2ccccc2)c1)C(Cl)Cl [Compound 97] | 10 | 0.01 | 0.001 | 0.002 |  | 0.04 |  | 0.004
CCC(C)C(=Nc1ccc(F)c(Cl)c1)OCc1cccc(Oc2ccccc2)c1 (stereo not shown) [Compound 122] | 37 | 0.01 | > 0.05 | 0.0007 | > 0.05 | 0.05 | > 0.01 | 
Cc1ccc(N=C(OCc2cccc(Oc3ccccc3)c2)C(Cl)Cl)cc1 [Compound 139] | 4.2 | 0.007 | 0.001 | 0.015 |  | 0.05 |  | 0.005
O=[N+]([O-])c1ccc(N=C(OCc2cccc(Oc3ccccc3)c2)C(Cl)Cl)cc1 [Compound 173] | 18 | > 0.1 | > 0.05 | 0.02 |  | > 0.1 |  | > 0.1
O=[N+]([O-])c1cccc(N=C(OCc2cccc(Oc3ccccc3)c2)C(Cl)Cl)c1 [Compound 174] | 17 | 0.1 | 0.05 | 0.03 |  | > 0.1 |  | 
CC(C)C(=Nc1ccc(F)c(I)c1)OCc1ccc(F)c(Oc2ccc(Cl)cc2)c1 [Compound 326] | 25 | 0.004 | > 0.05 | 0.00015 |  | 0.03 |  | 0.0005
CC(C)C(=Nc1ccc(F)c(Cl)c1F)OCc1cccc(Oc2ccccc2)c1 [Compound 332] | 7 | 0.0012 | > 0.05 | 0.00045 |  | 0.015 |  | 0.00075
CC(C)C(=Nc1ccc(F)c(Cl)c1)OCc1cccc(Oc2ccccc2)n1 [Compound 462] | 7 |  | 0.001 | 0.001 | 0.001 | 0.04 | > 0.05 | 0.0025
CC(C)C(=Nc1ccc(F)c(Cl)c1)OCc1cccc(Oc2ccc(Cl)cc2)n1 [Compound 463] | 8 | 0.0024 | 0.05 | 0.00009 | 0.0003 | 0.0075 | 0.01 | 
C#CCc1c(F)c(F)c(COC(=Nc2ccc(F)c(Cl)c2)C(C)C)c(F)c1F [Compound 520] | 5.5 |  | 0.0002 | > 0.1 | 0.0003 | > 0.1 | 0.0042 | 0.00075
CC(C)C(=Nc1ccc(F)c(Cl)c1F)OCc1cccc(Oc2ccc(F)cc2)n1 [Compound 521] | 7.5 |  | 0.0008 | 0.00005 | 0.05 | > 0.1 | 0.01 | 0.0005
CC(C)C(=Nc1ccc(Cl)c(Cl)c1)OCc1cccc(Oc2ccc(Cl)cc2)n1 [Compound 523] | 22 |  | 0.001 | 0.00015 | > 0.05 | > 0.1 | > 0.01 | 0.0002
CC(C)C(=Nc1ccc(C(F)(F)F)cc1)OCc1cccc(Oc2ccc(Cl)cc2)n1 [Compound 530] | 9.8 |  | 0.0003 | 0.00027 | 0.05 | 0.005 | > 0.01 | 0.00005
CC(C)C(=Nc1ccc(F)c(Cl)c1)OCc1cccc(Oc2ccc(F)c(F)c2)n1 [Compound 531] | 5 |  | > 0.05 | > 0.1 | > 0.05 | > 0.1 | > 0.01 | 0.00037
